Values of other authors, collected in US20060084141A1, “Biosynthetic gene cluster for the maytansinoid antitumor agent ansamitocin” (priority 2001, published 2006).

Tests used:
[1] = system: patients with different types of tumors; conditions: phase II trials
[2] = system: human carcinoma and leukemia cell lines; conditions: in vitro
[3] = system: various murine leukemia cell lines; conditions: in vitro

COc1cc2cc(c1Cl)N(C)C(=O)C[C@H](OC(=O)[C@H](C)N(C)C(C)=O)[C@]1(C)O[C@H]1[C@H](C)[C@@H]1C[C@@](O)(NC(=O)O1)[C@H](OC)/C=C/C=C(\C)C2 [Maytansine]
response rates [1]: Insignificant response rates | tumor response (human cancer patients; phase I (early) trials): A few partial responses | dose limiting toxicity (human cancer patients; phase I trials): dose limiting gastrointestinal toxicity and neurotoxicity | myelosuppression (human cancer patients; phase I trials): modest levels of mylosuppression | dose inhibiting growth [2]: 10^−3 to 10^−7 μg/ml | dose inhibiting growth [3]: 10^−3 to 10^−7 μg/ml
